Key:
[1] = target: CYP2C9 (Homo sapiens, UniProt P11712); assay: Cytochrome P450 inhibition assay, CYP2C9; assay type: biochemical; details: probe 7-methoxy-4-(trifluoromethyl)coumarin
[2] = target: hERG (Homo sapiens, UniProt Q12809); assay: hERG inhibition assay; assay type: cell-based; details: CHO cells transfected with hERG (CHO hERG-Duo cell line)
[3] = target: T1, murine sEH (Mus musculus, UniProt P34914); assay: Enzymatic sEH activity assay; assay type: biochemical
T1 sequence (P34914 1-554): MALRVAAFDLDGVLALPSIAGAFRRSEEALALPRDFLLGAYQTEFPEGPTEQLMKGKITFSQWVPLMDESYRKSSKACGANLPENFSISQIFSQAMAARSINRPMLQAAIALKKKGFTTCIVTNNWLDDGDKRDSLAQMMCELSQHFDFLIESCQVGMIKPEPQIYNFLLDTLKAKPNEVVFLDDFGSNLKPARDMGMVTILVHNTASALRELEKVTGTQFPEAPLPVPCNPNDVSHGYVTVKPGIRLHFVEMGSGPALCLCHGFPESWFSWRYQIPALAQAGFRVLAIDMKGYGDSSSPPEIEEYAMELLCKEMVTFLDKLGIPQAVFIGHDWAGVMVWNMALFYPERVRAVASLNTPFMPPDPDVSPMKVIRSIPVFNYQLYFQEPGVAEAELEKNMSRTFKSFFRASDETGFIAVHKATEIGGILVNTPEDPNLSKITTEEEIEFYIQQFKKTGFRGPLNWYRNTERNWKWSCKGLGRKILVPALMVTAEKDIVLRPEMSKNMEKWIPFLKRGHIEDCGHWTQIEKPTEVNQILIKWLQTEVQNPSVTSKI

[4] = test system: SH-SY5Y cells; assay: Cytotoxicity in SH-SY5Y cells; assay type: cell-based, human; details: 100 µM, MTT and PI assays
[5] = Pharmacokinetic study in plasma and brain, subcutaneous; assay type: in vivo, male CD1 mice; details: for AUC: male CD1 mice, 5 mg/kg single dose s.c.
[6] = Microsomal stability, human; assay type: in vitro ADME; details: after 60 min, pooled human microsomes, NADPH, 37 °C
[7] = target: T2, human soluble epoxide hydrolase (hsEH) (Homo sapiens, UniProt P34913); assay: sEH immunoblotting in HEK293 cells; assay type: cell-based; details: HEK293, 4 h treatment, 10-fold titration 10 nM to 10 µM
T2 sequence (P34913 1-555): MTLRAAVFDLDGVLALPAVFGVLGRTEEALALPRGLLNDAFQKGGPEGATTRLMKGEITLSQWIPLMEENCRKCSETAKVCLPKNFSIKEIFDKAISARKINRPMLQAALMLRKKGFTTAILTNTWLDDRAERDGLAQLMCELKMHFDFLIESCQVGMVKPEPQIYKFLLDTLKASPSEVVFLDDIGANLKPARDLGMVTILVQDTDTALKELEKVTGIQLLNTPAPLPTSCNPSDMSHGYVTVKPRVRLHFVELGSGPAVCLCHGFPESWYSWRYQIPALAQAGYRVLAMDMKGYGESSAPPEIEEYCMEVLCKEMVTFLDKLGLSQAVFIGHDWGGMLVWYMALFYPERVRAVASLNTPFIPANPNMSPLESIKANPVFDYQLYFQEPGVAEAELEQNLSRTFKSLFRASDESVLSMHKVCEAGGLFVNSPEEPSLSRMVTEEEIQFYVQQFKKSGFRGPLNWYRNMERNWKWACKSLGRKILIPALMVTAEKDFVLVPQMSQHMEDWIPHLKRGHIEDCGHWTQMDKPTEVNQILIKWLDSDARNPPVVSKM

[8] = target: CYP2D6 (Homo sapiens, UniProt P10635); assay: Cytochrome P450 inhibition assay, CYP2D6; assay type: biochemical
[9] = test system: paclitaxel-induced tactile allodynia; assay: Paclitaxel-induced neuropathic pain, mechanical allodynia; assay type: in vivo, female WT-CD1 mice
[10] = predicted BBB permeation class
[11] = Microsomal stability, mouse; assay type: in vitro ADME; details: after 60 min, pooled mouse microsomes, NADPH, 37 °C
[12] = target: CYP3A4 (Homo sapiens, UniProt P08684); assay: Cytochrome P450 inhibition assay, CYP3A4; assay type: biochemical; details: probe dibenzylfluorescein (DBF)
[13] = target: T3, human sEH (Homo sapiens, UniProt P34913); assay: Enzymatic sEH activity assay; assay type: biochemical
T3 sequence (P34913 1-555): T2 sequence (P34913 1-555)

[14] = male, CD1, mouse, plasma, sc, 5 mg/kg

Chain of CYP2D6 (P10635 whole entry): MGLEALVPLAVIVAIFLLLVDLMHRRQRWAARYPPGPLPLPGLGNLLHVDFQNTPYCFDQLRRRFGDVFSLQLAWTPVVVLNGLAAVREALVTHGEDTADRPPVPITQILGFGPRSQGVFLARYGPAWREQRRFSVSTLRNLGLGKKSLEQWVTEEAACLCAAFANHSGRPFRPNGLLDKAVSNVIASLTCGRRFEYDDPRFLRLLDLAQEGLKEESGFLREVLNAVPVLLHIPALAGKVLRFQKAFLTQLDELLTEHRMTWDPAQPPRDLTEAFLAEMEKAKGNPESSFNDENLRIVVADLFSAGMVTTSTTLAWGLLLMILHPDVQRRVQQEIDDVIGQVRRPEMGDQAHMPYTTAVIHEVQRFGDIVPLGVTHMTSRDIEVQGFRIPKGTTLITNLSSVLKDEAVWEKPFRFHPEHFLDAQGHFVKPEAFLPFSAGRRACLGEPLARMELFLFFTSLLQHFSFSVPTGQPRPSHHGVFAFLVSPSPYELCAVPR
Chain of CYP2C9 (P11712 whole entry): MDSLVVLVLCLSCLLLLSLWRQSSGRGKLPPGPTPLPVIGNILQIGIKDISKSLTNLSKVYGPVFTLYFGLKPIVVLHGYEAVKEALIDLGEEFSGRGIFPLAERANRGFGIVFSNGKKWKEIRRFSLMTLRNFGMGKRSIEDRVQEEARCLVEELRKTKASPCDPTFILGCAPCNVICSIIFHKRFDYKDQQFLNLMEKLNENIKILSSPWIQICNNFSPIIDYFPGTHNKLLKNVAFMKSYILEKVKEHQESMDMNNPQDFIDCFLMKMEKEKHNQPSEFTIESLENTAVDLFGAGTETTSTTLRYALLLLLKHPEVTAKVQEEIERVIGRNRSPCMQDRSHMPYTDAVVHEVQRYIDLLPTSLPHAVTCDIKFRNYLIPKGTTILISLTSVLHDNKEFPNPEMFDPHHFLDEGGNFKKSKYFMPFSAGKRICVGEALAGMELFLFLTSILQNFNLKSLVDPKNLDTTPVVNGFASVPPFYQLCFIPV
Chain of CYP3A4 (P08684 whole entry): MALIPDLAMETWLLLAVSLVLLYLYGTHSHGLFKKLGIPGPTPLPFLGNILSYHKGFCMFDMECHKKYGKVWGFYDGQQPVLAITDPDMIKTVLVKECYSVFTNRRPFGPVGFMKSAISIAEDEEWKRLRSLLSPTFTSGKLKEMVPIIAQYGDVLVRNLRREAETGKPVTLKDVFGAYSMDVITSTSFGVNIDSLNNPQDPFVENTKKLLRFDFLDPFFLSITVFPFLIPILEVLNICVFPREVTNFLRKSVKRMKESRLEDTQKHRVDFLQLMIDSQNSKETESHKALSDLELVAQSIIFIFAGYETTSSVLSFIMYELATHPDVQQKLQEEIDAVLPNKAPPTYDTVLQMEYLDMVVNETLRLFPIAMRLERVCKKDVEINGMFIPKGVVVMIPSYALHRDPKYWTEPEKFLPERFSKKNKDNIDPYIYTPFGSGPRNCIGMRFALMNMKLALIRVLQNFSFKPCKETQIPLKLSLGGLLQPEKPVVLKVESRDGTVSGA
Chain of hERG (Q12809 whole entry): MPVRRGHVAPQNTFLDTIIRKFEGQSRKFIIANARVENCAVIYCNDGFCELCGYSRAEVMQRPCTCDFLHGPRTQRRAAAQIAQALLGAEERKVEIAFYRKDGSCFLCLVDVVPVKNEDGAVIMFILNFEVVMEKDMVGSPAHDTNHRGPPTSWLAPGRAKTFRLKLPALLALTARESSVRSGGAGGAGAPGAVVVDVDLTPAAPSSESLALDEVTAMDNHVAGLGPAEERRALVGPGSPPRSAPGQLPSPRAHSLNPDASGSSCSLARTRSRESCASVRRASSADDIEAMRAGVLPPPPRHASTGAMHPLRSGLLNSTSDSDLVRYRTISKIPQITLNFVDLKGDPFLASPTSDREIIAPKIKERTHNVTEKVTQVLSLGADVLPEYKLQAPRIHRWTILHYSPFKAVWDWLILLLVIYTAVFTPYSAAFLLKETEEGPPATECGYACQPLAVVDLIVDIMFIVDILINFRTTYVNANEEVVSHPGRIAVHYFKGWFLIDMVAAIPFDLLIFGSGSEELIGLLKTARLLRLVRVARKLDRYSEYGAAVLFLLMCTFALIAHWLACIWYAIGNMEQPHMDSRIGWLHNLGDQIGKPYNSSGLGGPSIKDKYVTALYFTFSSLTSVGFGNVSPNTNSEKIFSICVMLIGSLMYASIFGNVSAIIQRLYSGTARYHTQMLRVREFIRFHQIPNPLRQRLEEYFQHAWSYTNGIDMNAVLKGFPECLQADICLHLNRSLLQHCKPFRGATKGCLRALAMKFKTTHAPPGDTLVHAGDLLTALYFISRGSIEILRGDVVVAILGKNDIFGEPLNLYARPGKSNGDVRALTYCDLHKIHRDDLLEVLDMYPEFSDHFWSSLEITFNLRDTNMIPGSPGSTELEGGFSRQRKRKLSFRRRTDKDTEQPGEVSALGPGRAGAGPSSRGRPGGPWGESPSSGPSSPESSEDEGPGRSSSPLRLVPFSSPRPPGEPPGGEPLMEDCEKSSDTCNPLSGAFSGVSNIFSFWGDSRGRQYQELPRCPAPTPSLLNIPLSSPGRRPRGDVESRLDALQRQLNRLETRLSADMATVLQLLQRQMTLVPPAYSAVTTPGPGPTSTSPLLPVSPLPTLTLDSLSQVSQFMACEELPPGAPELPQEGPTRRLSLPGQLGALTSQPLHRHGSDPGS

Row | Structure (SMILES) | inhibition at 10 µM [1] [%] | IC50 [3] [nM] | Microsomal stability Human, percentage of remaining compound [6] [%] | inhibition at 10 µM [8] [%] | Microsomal stability Mouse, percentage of remaining compound [11] [%] | inhibition at 10 µM [12] [%] | IC50 [13] [nM] | further results
1 | COc1cc2c(cc1OC)C1CC3(F)CC2CC(NC(=O)NC2CCN(C(=O)C4CCOCC4)CC2)(C1)C3 [Compound 21, 1-(9-Fluoro-2,3-dimethoxy-5,6,8,9,10,11-hexahydro-7H-5,9:7,11-dimethanobenzo[9]annulen-7-yl)-3–(1-(tetrahydro-2H-pyran-4-carbonyl)piperidin-4-yl)urea] | 8 ± 1 | 2.9 | 100 | 15 ± 4 | 86 | 1 ± 1 | – | inhibition at 30 min, 10 µM [2]: 9 ± 1%; Cytotoxicity at the highest concentration tested [4]: not cytotoxic; Compound level in brain samples ([5]; 5 mg/kg s.c., multiple time points 0.08–18 h): undetectable in all brain samples; Cmax [5, 14]: 1600 ng/mL; Tmax [5, 14]: 2 h; AUC ([5]; male, CD1, mouse, plasma, sc, 5 mg/kg, AUC^inf): 5600 ng·h/mL; AUC ([5]; male, CD1, mouse, plasma, sc, 5 mg/kg, AUC^last): 5500 ng·h/mL; hsEH protein levels (degradation) [7]: No significant degradation was observed; Prevention of development of paclitaxel-induced neuropathic pain ([9]; 5 mg/kg s.c. 30 min before each paclitaxel dose, tested at 10, 14, 21 days): showed no signs of sensory hypersensitivity at any time point tested; Dose achieving full / maximum antiallodynic effect ([9]; s.c., paclitaxel-treated mice): 5 mg/kg; Time of peak / maximum antiallodynic effect after administration ([9]; s.c., paclitaxel-treated mice): 90 min; PAMPA-BBB [10]: CNS −
2 | COc1ccc2c(c1)C1CC3(C)CC2CC(NC(=O)NC2CCN(C(C)=O)CC2)(C1)C3 (stereo not drawn) [Compound 15, 1-(1-Acetylpiperidin-4-yl)-3–(2-methoxy-9-methyl-5,6,8,9,10,11-hexahydro-7H-5,9:7,11-dimethanobenzo[9]annulen-7-yl)urea] | 12 ± 3 | 1.7 | 33 | 8 ± 2 | 32 | 12 ± 4 | – | –
3 | NCC1(CC(=O)O)CCCCC1 [gabapentin, reference compound] | – | – | – | – | – | – | – | Dose achieving full / maximum antiallodynic effect ([9]; s.c., paclitaxel-treated mice): 20 mg/kg
4 | CC(=O)N1CCC(NC(=O)NC23CC4CC(C)(CC(C2)c2cc(N)ccc24)C3)CC1 (stereo not drawn) [Compound 18, 1-(1-Acetylpiperidin-4-yl)-3–(2-amino-9-methyl-5,6,8,9,10,11-hexahydro-7H-5,9:7,11-dimethanobenzo[9]annulen-7-yl)urea] | – | 17.1 | – | – | – | – | 25 | –
5 | CC(=O)N1CCC(NC(=O)NC23CC4CC(C)(CC(C2)c2c(F)cccc24)C3)CC1 (stereo not drawn) [Compound 13, 1-(1-Acetylpiperidin-4-yl)-3–(1-fluoro-9-methyl-5,6,8,9,10,11-hexahydro-7H-5,9:7,11-dimethanobenzo[9]annulen-7-yl)urea] | 6 ± 3 | 0.8 | 16 | 1 ± 2 | 1 | 9 ± 3 | – | PAMPA-BBB [10]: CNS +
6 | COc1cc2c(cc1OC)C1CC3(C)CC2CC(NC(=O)NC2CCN(C(C)=O)CC2)(C1)C3 [Compound 19, 1-(1-Acetylpiperidin-4-yl)-3–(2,3-dimethoxy-9-methyl-5,6,8,9,10,11-hexahydro-7H-5,9:7,11-dimethanobenzo[9]annulen-7-yl)urea] | 8 ± 1 | 2.2 | 100 | 2 ± 2 | 70 | 15 ± 4 | 1.3 | –
7 | CC(=O)N1CCC(NC(=O)NC23CC4CC(C)(CC(C2)c2cc(F)ccc24)C3)CC1 (stereo not drawn) [Compound 14, 1-(1-Acetylpiperidin-4-yl)-3–(2-fluoro-9-methyl-5,6,8,9,10,11-hexahydro-7H-5,9:7,11-dimethanobenzo[9]annulen-7-yl)urea] | 12 ± 2 | 0.6 | 22 | 5 ± 2 | 4 | 13 ± 3 | – | PAMPA-BBB [10]: CNS +
8 | CC(=O)N1CCC(NC(=O)NC23CC4CC(C)(CC(C2)c2cc([N+](=O)[O-])ccc24)C3)CC1 (stereo not drawn) [Compound 17, 1-(1-Acetylpiperidin-4-yl)-3–(9-methyl-2-nitro-5,6,8,9,10,11-hexahydro-7H-5,9:7,11-dimethanobenzo[9]annulen-7-yl)urea] | 20 ± 4 | 4.5 | 100 | 8 ± 3 | 27 | 10 ± 1 | 4.5 | –
9 | COc1cc2c(cc1OC)C1CC3(C)CC2CC(NC(=O)NC2CCN(C(=O)C4CCOCC4)CC2)(C1)C3 [Compound 20, 1-(2,3-Dimethoxy-9-methyl-5,6,8,9,10,11-hexahydro-7H-5,9:7,11-dimethanobenzo[9]annulen-7-yl)-3–(1-(tetrahydro-2H-pyran-4-carbonyl)piperidin-4-yl)urea] | 22 ± 2 | 1.9 | 80 | 36 ± 5 | 96 | 43 ± 1 | 0.4 | inhibition at 30 min, 10 µM [2]: 11 ± 2%
10 | C#CCOc1ccccc1CCCCCC(=O)NS(C)(=O)=O [MS-PPOH, N-methanesulfonyl-6–(2-proparyloxyphenyl)hexanamide, reference compound] | – | – | – | – | – | – | – | Effect on paclitaxel-induced tactile allodynia (alone) ([9]; 20 mg/kg s.c., day 10 after paclitaxel): did not alter paclitaxel-induced tactile allodynia; Effect of MS-PPOH on the antiallodynic effect of 21 ([9]; MS-PPOH 20 mg/kg s.c. 5 min before 21 5 mg/kg s.c., measured at 90 min): fully abolished the effect of compound 21
11 | CC(=O)c1ccc2c(c1)C1CC3(C)CC2CC(NC(=O)NC2CCN(C(C)=O)CC2)(C1)C3 (stereo not drawn) [Compound 16, 1-(2-Acetyl-9-methyl-5,6,8,9,10,11-hexahydro-7H-5,9:7,11-dimethanobenzo[9]annulen-7-yl)-3–(1-acetylpiperidin-4-yl)urea] | 9 ± 3 | 6.7 | 92 | 7 ± 2 | 70 | 3 ± 2 | 4.1 | –

Reference: article PMC12551014 (Journal of Enzyme Inhibition and Medicinal Chemistry, 2025)
